Data on 37 compounds can be found in patent publication US9492460B2, “Carbazole compounds useful as bromodomain inhibitors” (Bristol-Myers Squibb Company, priority 2013, dated 2016).

Each structure is given as a SMILES string.

The test addresses T1, bromodomain BRD4 (44-168), BRD4 (333-460), and BRD4 (1-477 or 44-460) (Homo sapiens, UniProt O60885).
T1 construct: BRD4(44-168), BRD4(333-460), BRD4(44-460), BRD4(1-477), O60885-1; fused on or other part: N-terminal BirA biotinylation motif, biotinylated; The TVMV-cleavable His6 tag is removed, except in some BRD4(44-460) runs detected with anti-His terbium cryptate
Kind of test: Time Resolved Fluorescence Resonance Energy Transfer (TR-FRET) binding assay. The note with it: one of the FRET assays described. A general note: TR-FRET usually uses a lanthanide donor and a delayed reading to cut background.
Take `Cc1noc(C)c1-c1cc(C(N)=O)c2c3cc(N4CCOC4=O)ccc3n(Cc3ccc(Cl)c(F)c3)c2c1` [Example 164, 9-(4-chloro-3-fluorobenzyl)-2-(3,5-dimethyl-4-isoxazolyl)-6-(2-oxo-1,3-oxazolidin-3-yl)-9H-carbazole-4-carboxamide]: the IC50 (commonly the concentration that gives 50% inhibition) is below 500 nM.

On to `Cc1noc(C)c1-c1cc(C(N)=O)c2c3cc(N4CCOC4=O)ccc3n(Cc3ccc(F)cc3)c2c1` [Example 152, 2-(3,5-dimethyl-4-isoxazolyl)-9-(4-fluorobenzyl)-6-(2-oxo-1,3-oxazolidin-3-yl)-9H-carbazole-4-carboxamide], for which the IC50 is below 50 nM.

In turn, `CNC(=O)c1cc(-c2c(C)noc2C)cc2c1c1cc(C(=O)N3CC(F)C3)ccc1n2Cc1cccc(F)c1F` [Example 107] gave an IC50 below 50 nM.

Consider `CNC(=O)c1cc(-c2c(C)noc2C)cc2c1c1cc(N3CCCOC3=O)ccc1n2Cc1ccc(Cl)c(F)c1` [Example 172, 9-(4-chloro-3-fluorobenzyl)-2-(3,5-dimethyl-4-isoxazolyl)-N-methyl-6-(2-oxo-1,3-oxazinan-3-yl)-9H-carbazole-4-carboxamide], for which the IC50 was below 50 nM.

For the compound `Cc1oncc1-c1cc(C(N)=O)c2c3cc(C(=O)N4CCOCC4)ccc3n(Cc3ccc(F)cc3)c2c1` [Example 123, 9-(4-fluorobenzyl)-2-(5-methylisoxazol-4-yl)-6-(morpholine-4-carbonyl)-9H-carbazole-4-carboxamide], the IC50 was below 500 nM.

Regarding `Cc1noc(C)c1-c1cc(C(N)=O)c2c3ccc(C(C)(C)O)cc3n(C(c3ccccc3)C3CCOCC3)c2c1` (single isomer, unassigned) [Example 199], the IC50 was below 50 nM.

`Cc1noc(C)c1-c1cc(C(N)=O)c2c3cc(C(=O)NCCN4CCOCC4)ccc3n(Cc3ccccc3)c2c1` [Example 76]: the IC50 was below 50 nM.

`Cc1noc(C)c1-c1cc(C(N)=O)c2c3cc(N4CCCOC4=O)ccc3n(Cc3ccccc3)c2c1` [Example 156, 9-benzyl-2-(3,5-dimethyl-4-isoxazolyl)-6-(2-oxo-1,3-oxazinan-3-yl)-9H-carbazole-4-carboxamide] gave an IC50 below 50 nM.

The compound `CCCn1c2ccc(C(=O)N3CC(C)OC(C)C3)cc2c2ccc(-c3c(C)noc3C)cc21` (stereo not shown) [Example 3] gave an IC50 below 500 nM.

With `CNC(=O)Nc1ccc2c(c1)c1c(C(N)=O)cc(-c3c(C)noc3C)cc1n2Cc1ccccc1` [Example 148, 9-benzyl-2-(3,5-dimethyl-4-isoxazolyl)-6-((methylcarbamoyl)amino)-9H-carbazole-4-carboxamide], the IC50 is below 50 nM.

Take `CNC(=O)c1cc(-c2c(C)noc2C)cc2[nH]c3ccc(C(=O)N4CC(F)(F)C4)cc3c12` [Example 99, 6-((3,3-difluoro-1-azetidinyl)carbonyl)-2-(3,5-dimethyl-4-isoxazolyl)-N-methyl-9H-carbazole-4-carboxamide]: the IC50 is below 500 nM.

The compound `CC(=O)Nc1ccc2c(c1)c1c(C(N)=O)cc(-c3c(C)noc3C)cc1n2Cc1ccccc1` [Example 142, 6-acetamido-9-benzyl-2-(3,5-dimethyl-4-isoxazolyl)-9H-carbazole-4-carboxamide] showed an IC50 below 50 nM.

Turning to `Cc1noc(C)c1-c1cc(C(N)=O)c2c3cc(C(=O)N4CC(C)OC(C)C4)ccc3n(Cc3ccncn3)c2c1` (stereo not shown) [Example 38], the IC50 was below 500 nM.

Turning to `CON(C)C(=O)c1ccc2c3c(C(N)=O)cc(-c4c(C)noc4C)cc3n(Cc3ccccc3)c2c1` [Example 189, 9-Benzyl-7-(3,5-dimethyl-4-isoxazolyl)-N˜2˜-methoxy-N˜2˜-methyl-9H-carbazole-2,5-dicarboxamide], the 50% inhibitory concentration (IC50) is below 50 nM.

Take `Cc1noc(C)c1-c1cc(C(N)=O)c2c3cc(C(=O)N4CC(F)C4)ccc3n(CC3CCC3)c2c1` [Example 90]: the IC50 is below 50 nM.

`Cc1noc(C)c1-c1cc(C(N)=O)c2c3ccc(C(C)(C)O)c(F)c3n(C(c3ccc(F)cc3)C3CCOCC3)c2c1` (single isomer, unassigned) [Example 223, 2-(Dimethyl-1,2-oxazol-4-yl)-8-fluoro-9-[(4-fluorophenyl)(oxan-4-yl)methyl]-7-(2-hydroxypropan-2-yl)-9H-carbazole-4-carboxamide]: the IC50 was below 50 nM.

As to `Cc1nnn(C)c1-c1cc(C(N)=O)c2c3ccc(C(C)(C)O)cc3n(C(c3ccccc3)C3CCOCC3)c2c1` (single isomer, unassigned) [Example 233, 2-(1,4-Dimethyl-1H-1,2,3-triazol-5-yl)-7-(2-hydroxypropan-2-yl)-9-(phenyl(tetrahydro-2H-pyran-4-yl)methyl)-9H-carbazole-4-carboxamide], the IC50 is below 50 nM.

Take `Cc1noc(C)c1-c1cc(C(N)=O)c2c3cc(NCCF)ccc3n(Cc3ccccc3)c2c1` [Example 136, 9-benzyl-2-(3,5-dimethyl-4-isoxazolyl)-6-(2-fluoroethylamino)-9H-carbazole-4-carboxamide]: the half-maximal inhibitory concentration (IC50) was below 50 nM.

Compound `Cc1noc(C)c1-c1cc(C(N)=O)c2c3cc(N4CCCOC4=O)ccc3n(Cc3ccc(F)cc3)c2c1` [Example 151, 2-(3,5-dimethyl-4-isoxazolyl)-9-(4-fluorobenzyl)-6-(2-oxo-1,3-oxazinan-3-yl)-9H-carbazole-4-carboxamide] had an IC50 below 50 nM.

In the case of `Cc1noc(C)c1-c1cc(C(N)=O)c2c3cc(C(=O)N4CCCOCC4)ccc3n(Cc3ccccc3)c2c1` [Example 56], the IC50 is below 50 nM.

For `Cc1noc(C)c1-c1cc(C(N)=O)c2c3ccc(C(C)(C)O)cc3n(CC3CCOCC3)c2c1` [Example 197, 2-(3,5-dimethyl-4-isoxazolyl)-7-(1-hydroxy-1-methylethyl)-9-(tetrahydro-2H-pyran-4-ylmethyl)-9H-carbazole-4-carboxamide], the IC50 was below 50 nM.

`CNC(=O)c1cc(-c2c(C)noc2C)cc2c1c1cc(C(=O)N3CC(F)C3)ccc1n2C(C)c1ccc(Cl)cc1` (stereo not shown) [Example 111]: the IC50 is below 50 nM.

The compound `Cc1nnn(C)c1-c1cc(C(N)=O)c2c3ccc(C(C)(C)O)cc3n(C(c3ccccc3)C3CCOCC3)c2c1` (single isomer, unassigned) [Example 232, 2-(1,4-Dimethyl-1H-1,2,3-triazol-5-yl)-7-(2-hydroxypropan-2-yl)-9-(phenyl(tetrahydro-2H-pyran-4-yl)methyl)-9H-carbazole-4-carboxamide] returned an IC50 below 50 nM.

`Cc1noc(C)c1-c1cc(C(N)=O)c2c3cc(C(=O)N4COCC4(C)C)ccc3n(Cc3ccccc3)c2c1` [Example 77] showed an IC50 below 50 nM.

Regarding `Cc1noc(C)c1-c1ccc2c3cc(C(=O)N4C[C@@H](C)O[C@@H](C)C4)ccc3n(C(=O)c3ccccc3)c2c1` [Example 24, 9-benzoyl-2-(3,5-dimethyl-4-isoxazolyl)-6-((cis-2,6-dimethyl-4-morpholinyl)carbonyl)-9H-carbazole], the IC50 was below 500 nM.

As to `Cc1noc(C)c1-c1cc(C(N)=O)c2c3cc(C(=O)N4CC(C)OC(C)C4)ccc3n(Cc3ccc(Cl)cc3)c2c1` (stereo not shown) [Example 35], the IC50 was below 50 nM.

The compound `CNC(=O)c1cc(-c2c(C)noc2C)cc2c1c1cc(C(=O)N3CC(F)(F)C3)ccc1n2Cc1ccc(Cl)cc1` [Example 100, 9-(4-chlorobenzyl)-6-(3,3-difluoroazetidine-1-carbonyl)-2-(3,5-dimethylisoxazol-4-yl)-N-methyl-9H-carbazole-4-carboxamide] registered an IC50 below 500 nM.

For the compound `CCNC(=O)c1cc(-c2c(C)noc2C)cc2c1c1cc(N3CCCOC3=O)ccc1n2Cc1ccccc1` [Example 165, 9-benzyl-2-(3,5-dimethyl-4-isoxazolyl)-N-ethyl-6-(2-oxo-1,3-oxazinan-3-yl)-9H-carbazole-4-carboxamide], the IC50 is below 500 nM.

Consider `Cc1noc(C)c1-c1cc(C#N)c2c3ccc(C(N)=O)cc3n(C(c3ccccc3)c3ccccc3)c2c1` [Example 194, 5-Cyano-7-(3,5-dimethyl-4-isoxazolyl)-9-(diphenylmethyl)-9H-carbazole-2-carboxamide], for which the half-maximal inhibitory concentration (IC50) was below 50 nM.

In the case of `Cc1noc(C)c1-c1cc(C(N)=O)c2c3cc(C(=O)N4CC(F)C4)ccc3n(Cc3ccc(Cl)c(F)c3)c2c1` [Example 86], the IC50 is below 50 nM.

As for `Cc1noc(C)c1-c1cc(C(=O)N(C)C)c2c3cc(C(=O)N4CC(F)(F)C4)ccc3n(C(C)c3ccccc3)c2c1` (stereo not shown) [Example 120, 6-((3,3-difluoro-1-azetidinyl)carbonyl)-2-(3,5-dimethyl-4-isoxazolyl)-N,N-dimethyl-9-(1-phenylethyl)-9H-carbazole-4-carboxamide], the IC50 was below 500 nM.

Compound `Cc1noc(C)c1-c1ccc2c3cc(C(=O)N4CCOCC4)ccc3n(CC3CC3)c2c1` [Example 22, 9-(cyclopropylmethyl)-2-(3,5-dimethyl-4-isoxazolyl)-6-(4-morpholinylcarbonyl)-9H-carbazole] returned an IC50 below 500 nM.

In turn, `Cc1noc(C)c1-c1cc(C(N)=O)c2c3cc(C(=O)N4CC(F)C4)ccc3n(C(C)c3ccccc3)c2c1` (stereo not shown) [Example 85, 2-(3,5-dimethyl-4-isoxazolyl)-6-((3-fluoro-1-azetidinyl)carbonyl)-9-(1-phenylethyl)-9H-carbazole-4-carboxamide] showed an IC50 below 50 nM.

Turning to `COC(=O)c1ccc2c3c(C(N)=O)cc(-c4c(C)noc4C)cc3n(C(c3ccccc3)c3ccccc3)c2c1` [Example 192, Methyl 5-carbamoyl-7-(3,5-dimethyl-4-isoxazolyl)-9-(diphenylmethyl)-9H-carbazole-2-carboxylate], the IC50 is below 50 nM.

`CNC(=O)c1cc(-c2c(C)noc2C)cc2c1c1cc(C(=O)N3CC(F)C3)ccc1n2Cc1ccccn1` [Example 116, 2-(3,5-dimethylisoxazol-4-yl)-6-(3-fluoroazetidine-1-carbonyl)-N-methyl-9-(pyridin-2-ylmethyl)-9H-carbazole-4-carboxamide] showed a half-inhibitory concentration (IC50) below 50 nM.

Consider `Cc1noc(C)c1-c1cc(C(N)=O)c2c3cc(C(=O)N4CCC(C)CC4)ccc3n(Cc3ccccc3)c2c1` [Example 74], for which the IC50 is below 50 nM.

`Cc1noc(C)c1-c1cc(C(N)=O)c2c3cc(C(=O)N4CCC(C)(O)CC4)ccc3n(Cc3ccccc3)c2c1` [Example 51] showed an IC50 below 50 nM.
